According to patent publication US20150307520A1, “NOVEL HETEROARYL AND HETEROCYCLE COMPOUNDS, COMPOSITIONS AND METHODS THEREOF” (HUTCHISON MEDIPHARMA LIMITED, priority 2012, published 2015):

Assays:
Format in all cases: biochemical
p110δ/p85α = p110δ/p85α (Homo sapiens, UniProt O00329); experiment: Transcreener KINASE Assay, kinase inhibition of p110δ/p85α; settings: for PI3Kδ IH % @ 1 uM: 1 uM test compound; for IC50: read-out: PI3Kδ IC50
Procedure, shortened: (§1)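 Steps: compound (2% DMSO final) plus enzyme in HEPES/NaCl/EGTA/CHAPS/3 mM MgCl2/1 mM DTT buffer; start with PIP2/ATP addition (30 uM/10 uM solution); 80 min RT; add ADP detection mix, 60 min RT; read fluorescence polarization.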

p110β/p85α = p110β/p85α (Homo sapiens, UniProt P42338); experiment: Transcreener KINASE Assay, kinase inhibition of p110β/p85α; settings: for PI3Kβ IH % @ 1 uM: 1 uM test compound; for IC50: read-out: PI3Kβ IC50
Procedure, shortened: as §1

p110γ = p110γ (Homo sapiens, UniProt P48736); experiment: Transcreener KINASE Assay, kinase inhibition of p110γ; settings: for PI3Kγ IH % @ 1 uM: 1 uM test compound; for IC50: read-out: PI3Kγ IC50
Procedure, shortened: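 Recombinant PI3K isoforms (p85α complexes or p110γ alone) reacted 80 min at room temperature, then ADP detection mix added for 60 min. ADP formation read by far-red competitive fluorescence polarization immunoassay; IC50 by curve fitting.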

Chain of p110β/p85α (P42338 whole entry): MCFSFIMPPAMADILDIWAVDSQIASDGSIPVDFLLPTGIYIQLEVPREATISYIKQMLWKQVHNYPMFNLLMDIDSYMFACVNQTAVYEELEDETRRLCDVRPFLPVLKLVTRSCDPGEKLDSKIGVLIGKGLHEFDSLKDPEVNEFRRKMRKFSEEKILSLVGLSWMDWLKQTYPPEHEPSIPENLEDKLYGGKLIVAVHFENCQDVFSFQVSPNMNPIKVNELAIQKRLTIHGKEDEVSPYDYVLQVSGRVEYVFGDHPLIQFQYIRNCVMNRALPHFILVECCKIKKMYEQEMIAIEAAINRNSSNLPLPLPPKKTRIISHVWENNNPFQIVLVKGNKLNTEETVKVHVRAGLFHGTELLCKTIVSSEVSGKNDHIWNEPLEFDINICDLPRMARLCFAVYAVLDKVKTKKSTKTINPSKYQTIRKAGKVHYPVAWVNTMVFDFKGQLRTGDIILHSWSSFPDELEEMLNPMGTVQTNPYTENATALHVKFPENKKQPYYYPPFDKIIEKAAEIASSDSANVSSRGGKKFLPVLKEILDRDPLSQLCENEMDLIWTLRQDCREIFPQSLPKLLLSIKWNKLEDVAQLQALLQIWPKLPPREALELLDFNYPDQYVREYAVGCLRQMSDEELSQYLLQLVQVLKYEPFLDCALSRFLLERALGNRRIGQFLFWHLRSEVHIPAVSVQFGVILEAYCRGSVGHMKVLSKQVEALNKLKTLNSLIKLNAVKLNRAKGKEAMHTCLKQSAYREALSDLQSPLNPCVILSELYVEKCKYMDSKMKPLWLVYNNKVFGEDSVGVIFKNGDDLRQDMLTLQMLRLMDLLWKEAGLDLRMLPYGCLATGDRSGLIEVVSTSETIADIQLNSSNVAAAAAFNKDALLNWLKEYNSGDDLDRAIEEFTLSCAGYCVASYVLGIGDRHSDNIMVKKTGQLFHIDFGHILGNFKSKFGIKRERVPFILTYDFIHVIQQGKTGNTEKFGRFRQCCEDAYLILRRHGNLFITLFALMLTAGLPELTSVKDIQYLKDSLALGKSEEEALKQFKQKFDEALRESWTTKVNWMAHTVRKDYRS
Chain of p110β/p85α (P27986 2-724 partner): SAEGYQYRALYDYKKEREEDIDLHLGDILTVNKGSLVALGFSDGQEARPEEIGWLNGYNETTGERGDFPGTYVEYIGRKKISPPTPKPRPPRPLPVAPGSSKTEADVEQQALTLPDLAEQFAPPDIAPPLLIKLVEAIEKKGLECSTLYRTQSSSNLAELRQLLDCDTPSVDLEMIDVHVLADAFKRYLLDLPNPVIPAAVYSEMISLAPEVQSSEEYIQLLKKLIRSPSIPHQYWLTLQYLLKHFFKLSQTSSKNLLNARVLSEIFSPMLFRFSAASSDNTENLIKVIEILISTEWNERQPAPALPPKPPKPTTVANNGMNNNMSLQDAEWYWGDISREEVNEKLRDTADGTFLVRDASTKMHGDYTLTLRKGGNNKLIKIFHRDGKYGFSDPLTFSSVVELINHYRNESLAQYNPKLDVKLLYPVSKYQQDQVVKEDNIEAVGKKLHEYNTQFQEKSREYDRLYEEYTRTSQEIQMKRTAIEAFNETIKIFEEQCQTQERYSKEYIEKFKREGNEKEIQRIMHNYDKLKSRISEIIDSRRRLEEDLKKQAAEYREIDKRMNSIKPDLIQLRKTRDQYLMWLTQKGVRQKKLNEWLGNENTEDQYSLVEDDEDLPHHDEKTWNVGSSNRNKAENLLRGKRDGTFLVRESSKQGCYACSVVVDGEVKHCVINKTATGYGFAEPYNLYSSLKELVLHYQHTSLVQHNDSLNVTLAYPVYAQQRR
Chain of p110γ (P48736 whole entry, canonical isoform): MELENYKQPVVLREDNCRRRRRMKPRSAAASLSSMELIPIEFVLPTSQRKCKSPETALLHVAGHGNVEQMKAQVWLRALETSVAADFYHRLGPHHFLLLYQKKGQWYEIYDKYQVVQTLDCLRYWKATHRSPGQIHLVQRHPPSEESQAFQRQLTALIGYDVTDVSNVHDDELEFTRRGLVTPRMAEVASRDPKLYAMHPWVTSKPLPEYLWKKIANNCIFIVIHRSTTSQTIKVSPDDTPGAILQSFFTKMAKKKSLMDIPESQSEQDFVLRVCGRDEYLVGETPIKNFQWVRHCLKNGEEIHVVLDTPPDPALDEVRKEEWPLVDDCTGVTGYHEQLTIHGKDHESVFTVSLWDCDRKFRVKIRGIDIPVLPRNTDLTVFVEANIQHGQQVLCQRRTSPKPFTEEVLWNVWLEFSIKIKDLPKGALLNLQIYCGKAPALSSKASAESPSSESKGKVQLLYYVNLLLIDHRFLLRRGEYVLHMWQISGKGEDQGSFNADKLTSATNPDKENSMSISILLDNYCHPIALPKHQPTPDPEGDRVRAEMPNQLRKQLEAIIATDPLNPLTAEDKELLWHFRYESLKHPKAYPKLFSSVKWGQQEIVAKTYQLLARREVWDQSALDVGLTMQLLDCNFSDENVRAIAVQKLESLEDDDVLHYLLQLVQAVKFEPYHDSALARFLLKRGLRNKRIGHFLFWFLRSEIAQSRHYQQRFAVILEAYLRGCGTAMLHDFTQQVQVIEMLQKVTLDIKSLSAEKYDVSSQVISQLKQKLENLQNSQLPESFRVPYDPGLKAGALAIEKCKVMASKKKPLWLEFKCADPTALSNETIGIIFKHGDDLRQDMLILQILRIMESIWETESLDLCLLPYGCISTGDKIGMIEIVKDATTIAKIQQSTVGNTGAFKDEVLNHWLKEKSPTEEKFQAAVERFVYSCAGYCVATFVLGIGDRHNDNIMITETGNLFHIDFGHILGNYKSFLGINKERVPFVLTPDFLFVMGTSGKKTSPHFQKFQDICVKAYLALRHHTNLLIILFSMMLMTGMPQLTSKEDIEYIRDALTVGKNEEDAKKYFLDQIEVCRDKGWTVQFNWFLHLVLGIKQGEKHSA
Chain of p110δ/p85α (O00329 whole entry): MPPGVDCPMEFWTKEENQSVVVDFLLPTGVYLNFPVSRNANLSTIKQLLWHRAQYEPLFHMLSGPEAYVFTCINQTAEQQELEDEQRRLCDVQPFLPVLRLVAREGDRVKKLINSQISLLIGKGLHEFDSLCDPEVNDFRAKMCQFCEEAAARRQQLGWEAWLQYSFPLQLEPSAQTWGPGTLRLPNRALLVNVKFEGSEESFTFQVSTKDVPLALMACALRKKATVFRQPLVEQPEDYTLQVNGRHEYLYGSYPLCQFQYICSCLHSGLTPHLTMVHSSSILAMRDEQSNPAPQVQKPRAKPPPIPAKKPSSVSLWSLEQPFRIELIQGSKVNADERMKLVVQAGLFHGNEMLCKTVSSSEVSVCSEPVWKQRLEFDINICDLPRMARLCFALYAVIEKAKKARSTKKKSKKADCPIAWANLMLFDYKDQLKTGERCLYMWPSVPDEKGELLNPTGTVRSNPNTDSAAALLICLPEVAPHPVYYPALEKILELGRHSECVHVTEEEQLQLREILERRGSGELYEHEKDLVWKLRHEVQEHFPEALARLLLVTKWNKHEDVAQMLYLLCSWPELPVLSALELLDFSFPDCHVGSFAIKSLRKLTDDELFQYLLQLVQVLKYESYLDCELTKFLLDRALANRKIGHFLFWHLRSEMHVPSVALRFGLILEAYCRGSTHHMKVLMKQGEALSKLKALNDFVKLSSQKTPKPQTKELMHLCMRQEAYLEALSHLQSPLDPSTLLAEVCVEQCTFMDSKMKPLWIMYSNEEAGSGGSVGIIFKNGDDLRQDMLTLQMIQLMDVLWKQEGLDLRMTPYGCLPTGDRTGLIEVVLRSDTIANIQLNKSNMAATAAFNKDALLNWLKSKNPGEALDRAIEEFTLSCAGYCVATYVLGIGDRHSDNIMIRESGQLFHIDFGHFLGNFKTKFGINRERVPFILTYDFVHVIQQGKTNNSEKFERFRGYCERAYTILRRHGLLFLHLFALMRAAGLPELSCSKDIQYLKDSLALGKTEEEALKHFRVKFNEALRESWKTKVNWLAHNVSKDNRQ
Chain of p110δ/p85α (P27986 whole entry partner): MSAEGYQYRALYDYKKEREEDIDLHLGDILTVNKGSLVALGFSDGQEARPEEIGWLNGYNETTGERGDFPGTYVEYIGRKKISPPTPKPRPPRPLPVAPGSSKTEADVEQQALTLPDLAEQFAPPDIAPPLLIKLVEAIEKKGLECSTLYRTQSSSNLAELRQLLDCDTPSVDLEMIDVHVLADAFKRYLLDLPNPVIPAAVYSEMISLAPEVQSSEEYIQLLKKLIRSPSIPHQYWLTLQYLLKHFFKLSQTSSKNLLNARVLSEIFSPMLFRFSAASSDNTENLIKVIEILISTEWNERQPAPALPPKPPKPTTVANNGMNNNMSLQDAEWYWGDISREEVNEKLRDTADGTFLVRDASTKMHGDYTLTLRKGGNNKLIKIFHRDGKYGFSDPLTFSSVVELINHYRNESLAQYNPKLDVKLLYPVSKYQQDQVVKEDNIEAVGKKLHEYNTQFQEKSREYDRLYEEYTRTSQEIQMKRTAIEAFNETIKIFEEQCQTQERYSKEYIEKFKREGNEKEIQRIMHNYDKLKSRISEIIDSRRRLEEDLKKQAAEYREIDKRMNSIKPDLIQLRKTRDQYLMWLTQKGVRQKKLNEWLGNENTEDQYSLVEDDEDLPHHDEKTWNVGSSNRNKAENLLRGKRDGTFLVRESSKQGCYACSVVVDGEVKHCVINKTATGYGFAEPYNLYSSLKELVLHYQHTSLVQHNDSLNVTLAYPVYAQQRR

Row | PI3Kδ IH % @ 1 uM (p110δ/p85α) [%] | IC50 (p110δ/p85α) [nM] | PI3Kβ IH % @ 1 uM (p110β/p85α) [%] | IC50 (p110β/p85α) [nM] | PI3Kγ IH % @ 1 uM (p110γ) [%] | IC50 (p110γ) [nM] | SMILES
1 | >100 | 21 | 91.6 | 125 | 97.6 | 7 | O=c1c2c(Cl)ccn2nc([C@@H]2CCN2c2ncnc3[nH]cc(C4=NCCO4)c23)n1-c1ccccc1 [Compound 305]
2 | >100 | 11 | 92.8 | 16 | >100 | 29 | C/C(=N\O)c1c[nH]c2ncnc(N3CCC[C@H]3c3nn4ccc(Cl)c4c(=O)n3-c3ccccc3)c12 [Compound 306, (S)-5-chloro-2-(1-(5-(1-(hydroxyimino)ethyl)-7H-pyrrolo[2,3-d]pyrimidin-4-yl)pyrrolidin-2-yl)-3-phenylpyrrolo[2,1-f][1,2,4]triazin-4(3H)-one]
3 | 98.9 | 5 | 80.7 | 213 | 95.9 | 32 | CC(=O)Nc1c[nH]c2ncnc(N3CCC[C@H]3c3nn4ccc(Cl)c4c(=O)n3-c3ccccc3)c12 [Compound 307, (S)—N-(4-(2-(5-chloro-4-oxo-3-phenyl-3,4-dihydropyrrolo[2,1-f][1,2,4]triazin-2-yl)pyrrolidin-1-yl)-7H-pyrrolo[2,3-d]pyrimidin-5-yl)acetamide]
4 | >100 | 11 | 35.5 | – | 94.6 | 99 | N#Cc1c[nH]c2ncnc(N3CC[C@H]3c3nn4ccc(Cl)c4c(=O)n3-c3ccccn3)c12 [Compound 309, (S)-4-(2-(5-chloro-4-oxo-3-(pyridin-2-yl)-3,4-dihydropyrrolo[2,1-f][1,2,4]triazin-2-yl)azetidin-1-yl)-7H-pyrrolo[2,3-d]pyrimidine-5-carbonitrile]
5 | 97.1 | 23 | 20.0 | – | 93.7 | 67 | CC(=O)c1c[nH]c2ncnc(N3CC[C@H]3c3nn4ccc(Cl)c4c(=O)n3-c3ccccn3)c12 [Compound 312]
6 | 100.0 | 3 | 52.6 | – | 77.2 | 423 | O=c1c2c(F)ccn2nc([C@@H]2CCCN2c2ncnc3[nH]cnc23)n1-c1ccccn1 [Compound 313]
7 | 17.2 | – | 16.8 | – | 54.1 | – | Nc1nc(N2CC[C@H]2c2nn3ccc(Cl)c3c(=O)n2-c2ccccc2)n2ncc(Cl)c2n1 [Compound 314, (S)-2-(1-(2-amino-8-chloropyrazolo[1,5-a][1,3,5]triazin-4-yl)azetidin-2-yl)-5-chloro-3-phenylpyrrolo[2,1-f][1,2,4]triazin-4(3H)-one]
8 | 29.1 | – | 5.5 | – | 55.9 | – | N#Cc1cc2nc(N)nc(N3CCC[C@H]3c3nn4ccc(Cl)c4c(=O)n3-c3ccccc3)n2n1 [Compound 320]
9 | 100.0 | 5 | 80.5 | 218 | >100 | 11 | CC(=O)c1cnc(N)nc1N1CCCC1c1cn2ccc(Cl)c2c(=O)n1-c1ccccc1 (stereo not shown) [Compound 321]
10 | 99.5 | 5 | 58.0 | – | >100 | 27 | Cc1nc(N)nc(N2CC[C@H]2c2nn3ccc(F)c3c(=O)n2-c2ccccc2)c1C#N [Compound 322]
11 | 99.4 | 12 | 6.1 | – | >100 | 21 | CC(=O)c1cnc(N)nc1N1CC[C@H]1c1nn2ccc(F)c2c(=O)n1-c1ccccc1 [Compound 323]
12 | 98.8 | 1 | 67.1 | 456 | >100 | 5 | CC(=O)c1cnc(N)nc1N1C[C@H](C)[C@H]1c1nn2ccc(F)c2c(=O)n1-c1ccccc1 [Compound 324]
13 | 7.1 | – | −23.5 | – | 50.7 | – | Nc1ncc(C(=O)C2CC2)c(N2CC[C@H]2c2nn3ccc(Cl)c3c(=O)n2-c2ccccc2)n1 [Compound 326]
14 | 99.5 | 2 | 73.4 | 250 | 97.2 | 1 | Nc1nc2c(c(N3CCCC3c3cn4ccc(Cl)c4c(=O)n3-c3ccccc3)n1)C(=O)CCN2 (stereo not shown) [Compound 327]
15 | 71.9 | 121 | 20.9 | – | >100 | 147 | Nc1nc(N2CCC[C@H]2c2nn3ccc(Cl)c3c(=O)n2-c2ccccc2)c2cccn2n1 [Compound 331]
16 | 25.7 | – | 11.2 | – | 82.1 | 68 | Nc1nc(N2CC[C@H]2c2nn3ccc(Cl)c3c(=O)n2-c2ccccc2)c2ncccc2n1 [Compound 334]
17 | 48.4 | – | 17.0 | – | 69.5 | – | Nc1nc(N2CCC[C@H]2c2nn3ccc(Cl)c3c(=O)n2-c2ccccc2)c2ncccc2n1 [Compound 335]
18 | 99.2 | 1 | 93.2 | 21 | >100 | 5 | N#Cc1c[nH]c2ncnc(N3CCC[C@H]3c3nn4ccc(Cl)c4c(=O)n3-c3ccccn3)c12 [Compound 337, (S)-4-(2-(5-chloro-4-oxo-3-(pyridin-2-yl)-3,4-dihydropyrrolo[2,1-f][1,2,4]triazin-2-yl)pyrrolidin-1-yl)-7H-pyrrolo[2,3-d]pyrimidine-5-carbonitrile]
19 | 100.0 | 1 | 76.1 | 163 | 94.3 | 9 | CC(=O)c1c[nH]c2ncnc(N3CCC[C@H]3c3nn4ccc(Cl)c4c(=O)n3-c3ccccn3)c12 [Compound 340]
